Reference: patent US20110269763A1, “CRTH2 receptor ligands for medicinal uses” (7TM Pharma A/S, priority 2004, published 2011)

Assays:
human CRTH2 [1] = molecular target: T1, human CRTH2 (Homo sapiens, UniProt Q9Y5Y4, V204A); assay: Functional antagonist BRET assay on HEK293 cells stably expressing human CRTH2-Rluc and GFP2-β-arr2; format: cell-based; design: expressed in transfected cells; conditions: read-out: Antag. IC50
T1 sequence (Q9Y5Y4 1-395 V204A): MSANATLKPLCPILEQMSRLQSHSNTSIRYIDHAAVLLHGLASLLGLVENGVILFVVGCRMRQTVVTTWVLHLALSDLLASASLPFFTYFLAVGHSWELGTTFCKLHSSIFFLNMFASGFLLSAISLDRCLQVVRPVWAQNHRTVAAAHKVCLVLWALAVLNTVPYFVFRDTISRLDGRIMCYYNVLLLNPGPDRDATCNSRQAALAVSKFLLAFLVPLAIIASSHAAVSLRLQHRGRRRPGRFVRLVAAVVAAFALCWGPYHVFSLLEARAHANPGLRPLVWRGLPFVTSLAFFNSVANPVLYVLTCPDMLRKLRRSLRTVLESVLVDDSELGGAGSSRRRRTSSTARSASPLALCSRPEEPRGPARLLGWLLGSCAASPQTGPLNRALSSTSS
From the text: (§1) Generation/origin of the cDNA Constructs. The coding sequence of the human CRTH2 receptor (genbank accession no NM_004778) was amplified by PCR from a human hippocampus cDNA library and inserted into the pcDNA3.1(+) expression vector (invitrogen) via 5′ HindIII and 3′ EcoRI. To generate a CRTH2-Renilla luciferase (CRTH2-Rluc) fusion protein, the CRTH2 coding sequence without a STOP codon and Rluc were amplified, fused in frame by PCR and subcloned into the pcDNA3.1(+)Zeo expression vector (invitrogen). Human β-arrestin2 (β-arr2) N-terminally tagged with GFP^2 (βarr2-GFP^2) and Renilla luciferase were purchased from BioSignal Packard Inc, (Montreal, Canada). The sequence identity of the construct was verified by restriction endonuclease digests and sequencing in both directions on an ABI Prism (Applied Biosystems, Foster City, Calif.).
(§2) Cell Culture and Transfection. COS-7 cells were grown in Dulbecco's modified Eagle's medium (DMEM) 1885 supplemented with 10% fetal bovine serum, 100 units/ml penicillin, […] streptomycin, and kept at 37° C. in a 10% CO2 atmosphere. HEK293 cells were maintained in Minimum Essential medium (MEM) supplemented with 10% (v/v) heat inactivated fetal calf serum (HIFCS), 2 mM Glutamax™-I, 1% non essential amino acids (NEAA), 1% sodium pyruvate and 10 μg/ml gentamicin. For binding experiments, COS7 cells were transiently transfected with the CRTH2 receptor using a calcium phosphate-DNA coprecipitation method with the addition of chloroquine (as described by Holst et al., 2001↓). To perform the functional Bioluminescence Resonance Energy Transfer (BRET) assays, a HEK293 cell clone stably expressing βarr2-GFP^2 and CRTH2-Rluc was generated (CRTH2-HEK293 cells).
BRET assay. Functional BRET assays were performed on HEK293 cells stably expressing human CRTH2-Rluc and GFP^2-β-arr2. Prior to their use in the BRET assay cells were detached and re-suspended in D-PBS with 1000 mg/L L-Glucose at a density of 2×10^6 cells/mL. DeepBlueC™ was diluted to 50 μM in D-PBS with 1000 mg/L L-Glucose (light sensitive). 100 μL of cell suspension was transferred to wells in a 96-well microplate (white OptiPlate) and placed in the Mithras LB 940 instrument (BERTHOLD TECHNOLOGIES, Bad Wildbad, Germany). 12 μL/well agonist was then injected by injector 1 and 10 μL/well DeepBlueC™ was injected simultaneously by injector 2. Five seconds after the injections the light output from the well was measured sequentially at 400 nm and 515 nm, and the BRET signal (mBRET ratio) was calculated by the ratio of the fluorescence emitted by GFP^2-β-arr2 (515 nm) over the light emitted by the receptor-Rluc (400 nm). Antagonists were added before placing the microplates into the Mithras LB 940 and allowed to incubate for 15 minutes prior to the addition of agonist and DeepBlueC™. Compounds were dissolved in DMSO and the final DMSO concentration was kept constant at 1% in the assay.
(§3) Curve analysis was performed with the GraphPadPrism software 3.0 (Graphpad Prism Inc., San Diego, USA) and IC50 values were calculated as a measure of the antagonistic potencies.

human CRTH2 [2] = molecular target: T1, human CRTH2; assay: Receptor binding assay: [3H]PGD2 competition binding on whole COS-7 cells transiently transfected with CRTH2 (also stable HEK293 cells); design: expressed in transfected cells; host or cells: COS-7 (transient, calcium phosphate)
From the text: as §1, §2
Binding assay. 24 h after transfection COS-7 cells were seeded into 96 well plates at a density of 30.000 cells/well. Competition binding experiments on whole cells were then performed about 18-24 h later using 0.1 nM [^3H]PGD2 (NEN, 172 Ci/mmol) in a binding buffer consisting of HBSS (GIBCO) and 10 mM HEPES. Competing ligands were diluted in DMSO which was kept constant at 1% (v/v) of the final incubation volume. Total and nonspecific binding were determined in the absence and presence of 10 μM PGD2. Binding reactions were routinely conducted for 3 h at 4° C. and terminated by 2 washes (100 μl each) with ice cold binding buffer. Radioactivity was determined by liquid scintillation counting in a TOPCOUNTER (Packard) following over night incubation in Microscint 20. Stable HEK293 cells were seeded at a density of 30.000 cells/well 18-24 h prior to the binding assay which was performed essentially as described for COS7 cells above. Determinations were made in duplicates.
as §3

[3] = BRET, antagonist incubated 15 minutes prior to agonist
[4] = competition with 0.1 nM [3H]PGD2, whole cells, 3 h at 4° C.
[5] = functional antagonist assay, Table 3
[6] = receptor binding assay, Table 3

| Structure (SMILES) | IC50 (human CRTH2 [1]; [3]) | IC50 (human CRTH2 [2]; [4]) | IC50 (human CRTH2 [1]; [5]) | IC50 (human CRTH2 [2]; [6]) |
| --- | --- | --- | --- | --- |
| CC1(Cc2cc(Br)ccc2OCC(=O)O)SC(=O)N(Cc2ccc(Cl)cc2)C1=O (stereo not drawn) [D146, 4-Bromo-2-[3-(4-chlorobenzyl)-5-methyl-2,4-dioxothiazolidin-5-ylmethyl]phenoxyacetic acid] | < 500 nM | < 500 nM | – | – |
| COc1cccc(Cc2noc(-c3cc(Br)ccc3OCC(=O)O)n2)c1 [D125, {4-Bromo-2-[3-(3-methoxybenzyl)-[1,2,4]oxadiazol-5-yl]phenoxy}acetic acid] | – | – | > 5000 nM | < 500 nM |
| COc1ccc(Cc2noc(-c3cc(Br)ccc3OCC(=O)O)n2)cc1 [D118, {4-Bromo-2-[3-(4-methoxy-benzyl)-[1,2,4]oxadiazol-5-yl]-phenoxy}-acetic acid] | – | – | < 500 nM | < 500 nM |
| COc1ccc(Cc2noc(-c3cc(Br)ccc3OCC(=O)O)n2)cc1OC [D124, {4-Bromo-2-[3-(3,4-dimethoxybenzyl)-[1,2,4]oxadiazol-5-yl]phenoxy}-acetic acid] | – | – | < 500 nM | < 500 nM |
| COc1cccc(-c2nc(-c3cc(Br)ccc3OCC(=O)O)co2)c1 [D86, {4-Bromo-2-[2-(3-methoxyphenyl)oxazol-4-yl]phenoxy}acetic acid] | < 500 nM | < 500 nM | – | – |
| O=C(O)COc1ccc(Br)cc1C(=O)c1cnn(-c2ccc(C(F)(F)F)cc2)c1 [D81, {4-Bromo-2-[1-(4-trifluoromethylphenyl)-1H-pyrazole-4-carbonyl]phenoxy}acetic acid] | < 500 nM | < 500 nM | – | – |
| O=C(O)COc1ccc(Br)cc1-c1nc(-c2cccc(C(F)(F)F)c2)no1 [D112, {4-Bromo-2-[3-(3-trifluoromethylphenyl)-[1,2,4]oxadiazol-5-yl]phenoxy}-acetic acid] | – | – | < 500 nM | < 500 nM |
| O=C(O)COc1ccc(Br)cc1C(=O)c1cnn(-c2ccccc2OC(F)(F)F)c1 [D52, {4-Bromo-2-[1-(2-trifluoromethoxyphenyl)-1H-pyrazole-4-carbonyl]phenoxy}acetic acid] | < 500 nM | < 500 nM | – | – |
| CCCCc1ccc(OCC(=O)O)c(C(=O)c2cnn(-c3ccccc3)c2)c1 [D75, [4-Butyl-2-(1-phenyl-1H-pyrazole-4-carbonyl)phenoxy]acetic acid] | > 5000 nM | < 500 nM | – | – |
| COc1ccccc1Cc1noc(-c2cc(Br)ccc2OCC(=O)O)n1 [D119, {4-Bromo-2-[3-(2-methoxy-benzyl)-[1,2,4]oxadiazol-5-yl]-phenoxy}-acetic acid] | – | – | < 500 nM | < 500 nM |
| CCc1cccc(CC)c1-n1cc(C(=O)c2cc(Br)ccc2OCC(=O)O)cn1 [D70, {4-Bromo-2-[1-(2,6-diethyl-phenyl)-1H-pyrazole-4-carbonyl]phenoxy}acetic acid] | < 500 nM | < 500 nM | – | – |
| O=C(O)COc1ccc(Br)cc1C(=O)c1cnn(-c2c(Cl)cccc2Cl)c1 [D29, 4-Bromo-2-[1-(2,6-dichlorophenyl)-1H-pyrazole-4-carbonyl]phenoxyacetic acid] | < 500 nM | < 500 nM | – | – |
| O=C(O)COc1ccc(Br)cc1CC1SC(=O)N(Cc2cccc(Cl)c2)C1=O (stereo not drawn) [D144, 4-Bromo-2-[3-(3-chlorobenzyl)-2,4-dioxothiazolidin-5-ylmethyl]phenoxyacetic acid] | < 500 nM | < 500 nM | – | – |
| O=C(O)COc1ccc(Br)cc1C=NNc1cccc2cccnc12 [D150] | > 5000 nM | < 500 nM | – | – |
| COc1cccc(Cc2nc(-c3cc(Br)ccc3OCC(=O)O)co2)c1 [D89, {4-Bromo-2-[2-(3-methoxybenzyl)oxazol-4-yl]phenoxy}acetic acid] | < 500 nM | < 500 nM | – | – |
| O=C(O)COc1ccc(Cl)cc1C(=O)c1cnn(-c2ccccc2)c1 [D10, [4-Chloro-2-(1-phenyl-1H-pyrazole-4-carbonyl)phenoxy]acetic acid] | 500 to 5000 nM | < 500 nM | – | – |
| O=C(O)COc1ccc(Br)cc1-c1noc(-c2ccccc2Cl)n1 [D137, {4-Bromo-2-[5-(2-chlorophenyl)-[1,2,4]oxadiazol-3-yl]phenoxy}acetic acid] | < 500 nM | < 500 nM | – | – |
| O=C(O)COc1ccc(-c2cc(F)cc(F)c2)cc1C(=O)c1cnn(-c2ccccc2)c1 [D8, [3′,5′-Difluoro-3-(1-phenyl-1H-pyrazole-4-carbonyl)biphenyl-4-yloxy]acetic acid] | 500 to 5000 nM | < 500 nM | – | – |
| O=C(O)COc1ccc(Br)cc1-c1nc(Cc2ccc(OC(F)(F)F)cc2)no1 [D113, {4-Bromo-2-[3-(4-trifluoromethoxy-benzyl)-[1,2,4]oxadiazol-5-yl]-phenoxy}-acetic acid] | – | – | < 500 nM | < 500 nM |
| N#Cc1ccccc1-n1cc(C(=O)c2cc(Br)ccc2OCC(=O)O)cn1 [D40, {4-Bromo-2-[1-(2-cyano-phenyl)-1H-pyrazole-4-carbonyl]phenoxy}acetic acid] | < 500 nM | < 500 nM | – | – |
| CCOc1ccc(OCC(=O)O)c(C(=O)c2cnn(-c3ccccc3)c2)c1 [D74, [4-Ethoxy-2-(1-phenyl-1H-pyrazole-4-carbonyl)phenoxy]acetic acid] | > 5000 nM | 500 to 5000 nM | – | – |
| O=C(O)COc1ccc(Br)cc1-c1nc(-c2ccccc2Cl)no1 [D108, {4-Bromo-2-[3-(2-chlorophenyl)-[1,2,4]oxadiazol-5-yl]phenoxy}acetic acid] | – | – | < 500 nM | < 500 nM |
| CC(Oc1ccc(Br)cc1C(=O)c1cnn(-c2ccccc2Cl)c1)C(=O)O (stereo not drawn) [D38, 2-{4-Bromo-2-[1-(2-chlorophenyl)-1-H-pyrazole-4-carbonyl]phenoxy}propionic acid] | < 500 nM | < 500 nM | – | – |
| O=C(O)COc1ccc(Br)cc1-c1nc(-c2ccc(Oc3ccccc3)cc2)no1 [D111, {4-Bromo-2-[3-(4-phenoxy-phenyl)-[1,2,4]oxadiazol-5-yl]-phenoxy}-acetic acid] | – | – | < 500 nM | < 500 nM |
| CC(Oc1ccc(Br)cc1C(=O)c1cnn(-c2c(Cl)cccc2Cl)c1)C(=O)O (stereo not drawn) [D39, 2-{4-Bromo-2-[1-(2,6-dichlorophenyl)-1H-pyrazole-4-carbonyl]phenoxy}propionic acid] | < 500 nM | < 500 nM | – | – |
| O=C(O)COc1ccc(Br)cc1C(=O)c1cnn(-c2ccccc2Br)c1 [D21, 4-Bromo-2-[1-(2-bromophenyl)-1H-pyrazole-4-carbonyl]phenoxyacetic acid] | < 500 nM | < 500 nM | – | – |
| O=C(O)COc1ccc(Br)cc1C(=O)c1cc(-c2ccccc2)no1 [D97, [4-Bromo-2-(3-phenylisoxazole-5-carbonyl)phenoxy]acetic acid] | < 500 nM | < 500 nM | – | – |
